{"source": "patent US20190038714A1", "about": "“ANTI-INFLAMMATORY COMPOSITION COMPRISING CLAVASPIRIN PEPTIDE ANALOGUE AS EFFECTIVE INGREDIENT” (INDUSTRY-ACADEMIC COOPERATION FOUNDATION, CHOSUN UNIVERSITY, priority 2015, published 2019)", "key": {"S. aureus MRSA 5156": {"tested_on": "S. aureus MRSA 5156", "conditions": "24 hours at 37° C."}, "S. aureus MRSA 1870": {"tested_on": "S. aureus MRSA 1870", "conditions": "24 hours at 37° C."}, "[1]": {"experiment": "Cytotoxicity in normal cell line (MTT)", "assay_type": "cell-based, human", "conditions": "human, HaCaT cells (keratinocyte cell line), HaCaT, 24 hours, MTT, read-out: Cell survival ability %; for viability at 24 h, 25 µM: peptide 25 μM; for viability at 24 h, 50 µM: peptide 50 μM; for viability at 24 h, 100 µM: peptide 100 μM; for viability at 24 h, 200 µM: peptide 200 μM; for viability at 24 h, 400 µM: peptide 400 μM", "method": "(§1) To determine the cytotoxicity of the peptide produced by the method of Example 1 in normal cell line, toxicity was measured by using human keratinocyte forming cell line (HaCaT cell line, Dr. NE. Fusenig, Heidelberg, Germany).\n(§2) Specifically, HaCaT cells which have been cultured in DMEM medium containing 10% FBS (Fetal Bovine Serum) were aliquoted in a 96-well plate (3×10^3 cells/well). […] After the culture, a reaction solution containing 5 mg/ml MTT (Thiazolyl Blue Tetrazolium Bromide) dissolved in physiological saline (PBS) was added in an amount of 20 μl to each well and allowed to react for 4 hours. After that, the supernatant was removed, and, by dissolving the formed MTT crystals by adding 200 μl of DMSO, the absorbance at 560 nm was measured to determine the cell survival ability."}, "S. aureus MRSA 3126": {"tested_on": "S. aureus MRSA 3126", "conditions": "24 hours at 37° C."}, "S. aureus MRSA 0027": {"tested_on": "S. aureus MRSA 0027", "conditions": "24 hours at 37° C."}, "skin of a hairless mouse": {"tested_on": "skin of a hairless mouse", "experiment": "Scanning electron microscopy of hairless mouse skin with induced dermatitis", "assay_type": "in vivo", "conditions": "200 μg/ml", "method": "Skin of a 6-week old hairless mouse was treated with 100 μl of S. aureus MRSA 0027 (1×10^8 cells/ml) to induce inflammation. Thirty minutes later, the skin was further treated with CSP-4 peptide at 100 μg/ml or 200 μg/ml. From each of a mouse having induced inflammation further treated with the peptide, a mouse treated only with the peptide, and a mouse having induced inflammation, tissues were collected and washed using physiological saline (PBS). Then, the tissues were fixed for 24 hours at room temperature by using 4% PFA (paraformaldehyde). […] According to H&E staining and immunohistochemical method, a change in tissues and onset of an anti-inflammatory cytokine or TLR2 receptor was determined. […] Remaining liquids were removed by TBST buffer such that the tissues are not detached, and a secondary antibody linked with green fluorescence (Got anti-mouse IgG (HRP) LF-SA5001-conjugated) was allowed to bind thereto. Next, each tissue was determined by using a fluorescent microscope (I×71, Olympus, Japan).\nFrom the mouse tissues which have been treated according to the method of above Example 8, a paraffin block was prepared. […] Next, a change in the tissues was determined by using scanning electron microscopy (SEM)."}, "HaCaT cell line": {"tested_on": "HaCaT cell line", "experiment": "Cytotoxicity in normal cell line (MTT)", "assay_type": "cell-based, human", "conditions": "HaCaT cell line", "method": "as §1, §2"}}, "note": "Ends that are not written are not given here.", "data": [{"substance": "FLRFIGSVIHGIGHLVHHIGVAL-NH2 [Clavaspirin]", "values": [{"measurement": "MIC", "setting": "S. aureus MRSA 5156", "result": 8, "unit": "µM"}, {"measurement": "MIC", "setting": "S. aureus MRSA 1870", "result": 8, "unit": "µM"}, {"measurement": "viability at 24 h, 25 µM", "setting": "[1]", "result": 15, "unit": "%"}, {"measurement": "viability at 24 h, 50 µM", "setting": "[1]", "result": 3, "unit": "%"}, {"measurement": "viability at 24 h, 100 µM", "setting": "[1]", "result": 1, "unit": "%"}, {"measurement": "viability at 24 h, 200 µM", "setting": "[1]", "result": 1, "unit": "%"}, {"measurement": "viability at 24 h, 400 µM", "setting": "[1]", "result": 0, "unit": "%"}, {"measurement": "MIC", "setting": "S. aureus MRSA 3126", "result": 16, "unit": "µM"}, {"measurement": "MIC", "setting": "S. aureus MRSA 0027", "result": 16, "unit": "µM"}]}, {"substance": "FLRFIGSVKHGKGHLVHHIGVAL-NH2 [CSP-4]", "values": [{"measurement": "MIC", "setting": "S. aureus MRSA 5156", "result": 8, "unit": "µM"}, {"measurement": "MIC", "setting": "S. aureus MRSA 1870", "result": 8, "unit": "µM"}, {"measurement": "change in mouse skin (SEM), treated only with the peptide", "setting": "skin of a hairless mouse", "result": "no change in mouse skin is induced"}, {"measurement": "viability at 24 h, 25 µM", "setting": "[1]", "result": 100, "unit": "%"}, {"measurement": "viability at 24 h, 50 µM", "setting": "[1]", "result": 100, "unit": "%"}, {"measurement": "viability at 24 h, 100 µM", "setting": "[1]", "result": 100, "unit": "%"}, {"measurement": "viability at 24 h, 200 µM", "setting": "[1]", "result": 100, "unit": "%"}, {"measurement": "viability at 24 h, 400 µM", "setting": "[1]", "result": 88, "unit": "%"}, {"measurement": "cytotoxicity in human keratinocyte forming cell line", "setting": "HaCaT cell line", "result": "almost no cytotoxicity"}, {"measurement": "MIC", "setting": "S. aureus MRSA 3126", "result": 8, "unit": "µM"}, {"measurement": "MIC", "setting": "S. aureus MRSA 0027", "result": 8, "unit": "µM"}]}]}
